Data on 32 compounds can be found in patent US20190119282A1, “IMIDAZOPYRIDAZINES USEFUL AS INHIBITORS OF THE PAR-2 SIGNALING PATHWAY” (Vertex Pharmaceuticals Incorporated, priority 2013, published 2019).

Assay [1] concerns the target T1, PAR2 (HT-29 cells, SLIGKV activation) (Homo sapiens, UniProt P55085).
T1 construct: host or cells: HT-29 cells
T1 sequence (P55085 26-397): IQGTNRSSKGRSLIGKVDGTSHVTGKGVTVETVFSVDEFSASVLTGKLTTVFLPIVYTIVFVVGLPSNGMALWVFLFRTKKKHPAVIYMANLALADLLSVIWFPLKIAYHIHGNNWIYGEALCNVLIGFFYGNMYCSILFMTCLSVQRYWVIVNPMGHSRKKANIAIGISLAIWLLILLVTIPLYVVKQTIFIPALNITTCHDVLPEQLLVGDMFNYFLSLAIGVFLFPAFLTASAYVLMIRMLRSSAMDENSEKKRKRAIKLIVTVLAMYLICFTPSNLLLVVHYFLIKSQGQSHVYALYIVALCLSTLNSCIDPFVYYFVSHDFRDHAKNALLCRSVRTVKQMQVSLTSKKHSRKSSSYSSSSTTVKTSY
Description: Ca FLIPR TETRA assay, ANTAGONIST mode, stimulation with 8 μM SLIGKV. Format: cell-based. Particulars: HT-29 cells, antagonist mode, stimulation with 8 μM SLIGKV. In outline:
(§1)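 Antagonist-mode assay: dye-loaded HT-29 cells, compound 30 min at r.t., then stimulated with final 8 μM SLIGKV, 3.1 U/mL trypsin, 1 U/mL thrombin or 0.6 μM UTP; calcium fluorescence read.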

Assay [2] addresses T2, PAR2 (HT-29 cells, trypsin activation) (Homo sapiens, UniProt P55085).
T2 construct: host or cells: HT-29 cells
T2 sequence (P55085 26-397): T1 sequence (P55085 26-397)
Description: Ca FLIPR TETRA assay, ANTAGONIST mode, stimulation with 3.1 U/mL trypsin. Format: cell-based. Particulars: HT-29 cells, antagonist mode, stimulation with 3.1 U/mL trypsin. In a few lines: as §1

The subject of assay [3] is UTP-stimulated Ca2+ response in HT-29 cells. Kind of assay: Ca FLIPR TETRA assay, ANTAGONIST mode, stimulation with 0.6 μM UTP. Format: cell-based, human. Particulars: Homo sapiens; HT-29 cells, antagonist mode, stimulation with 0.6 μM UTP. In a few lines:
as §1

In assay [4] the test system is Thrombin-stimulated Ca2+ response in HT-29 cells. Description: Ca FLIPR TETRA assay, ANTAGONIST mode, stimulation with 1 U/mL Thrombin. Format: cell-based, human. Particulars: Homo sapiens; HT-29 cells, antagonist mode, stimulation with 1 U/mL Thrombin. In outline:
as §1

Structures are written as SMILES.

On to `Cc1ccc(-c2cc(C(C)C)c3nc(C(=O)N4CCN(C(=O)c5nnc(C)o5)CC4(C)C)cn3n2)cc1` [Compound I-332], for which the IC50 in assay [1] was 13.3 nM; in assay [2] it was 11.5 nM; in assay [3], above 1000 nM; in assay [4], above 1000 nM.

Turning to `Cc1ccc(-c2cc(C(C)C)c3nc(C(=O)N4CCN(C(=O)C5CC(C)(O)C5)CC4(C)C)cn3n2)cc1` (centres unmarked) [Compound I-333], the 50% inhibitory concentration (IC50) in assay [1] was 3.2 nM; in assay [2], 3.8 nM; in assay [3], above 1000 nM; in assay [4], above 1000 nM.

Consider `Cc1ccc(-c2cc(C(C)C)c3nc(C(=O)N4CCN(C(=O)c5nc(C)n[nH]5)CC4(C)C)cn3n2)cc1` [Compound I-334], for which the 50% inhibitory concentration (IC50) in assay [1] is 4.6 nM; in assay [2], 4.8 nM; in assay [3], above 1000 nM; in assay [4] it was above 1000 nM.

As for `Cc1cc(C(=O)N2CCN(C(=O)c3cn4nc(-c5ccc(C)c(F)c5)cc(C(C)C)c4n3)C(C)(C)C2)[nH]n1` [Compound I-335], the IC50 in assay [1] was 0.8 nM; in assay [2], 0.6 nM; in assay [3] it was above 1000 nM; in assay [4], above 1000 nM.

As to `Cc1ccc(-c2cc(C(C)C)c3nc(C(=O)N4CCN(C(=O)c5nc[nH]n5)CC4(C)C)cn3n2)cc1F` [Compound I-336], the IC50 was 5 nM in assay [1], 2.8 nM in assay [2], above 1000 nM in assay [3] and above 1000 nM in assay [4].

For the compound `Cc1nnc(C(=O)N2CCN(C(=O)c3cn4nc(-c5ccc(C)c(F)c5)cc(C(C)C)c4n3)C(C)(C)C2)o1` [Compound I-337], the 50% inhibitory concentration (IC50) in assay [1] was 5.4 nM; in assay [2] it was 4.5 nM; in assay [3], above 1000 nM; in assay [4], above 1000 nM.

As for `Cc1ccc(-c2cc(C(C)C)c3nc(C(=O)N4CCN(C(=O)C5CC(C)(O)C5)CC4(C)C)cn3n2)cc1F` (centres unmarked) [Compound I-338], the IC50 in assay [1] was 2.2 nM; in assay [2] it was 1.6 nM; in assay [3], above 1000 nM; in assay [4] it was above 1000 nM.

Take `Cc1n[nH]c(C(=O)N2CCN(C(=O)c3cn4nc(-c5ccc(C)c(F)c5)cc(C(C)C)c4n3)C(C)(C)C2)n1` [Compound I-339]: the concentration for half-maximal inhibition (IC50) was 1.9 nM in assay [1], 1.9 nM in assay [2], above 1000 nM in assay [3] and above 1000 nM in assay [4].

For `Cc1c[nH]c(C(=O)N2CCN(C(=O)c3cn4nc(-c5ccc(F)cc5)cc(C(C)(C)C)c4n3)C(C)(C)C2)n1` [Compound I-340], the IC50 in assay [1] is 1.5 nM; in assay [2], 1.6 nM; in assay [3], above 1000 nM; in assay [4] it was above 1000 nM.

Consider `Cc1cc(C(=O)N2CCN(C(=O)c3cn4nc(-c5ccc(F)c(C)c5)cc(C(C)C)c4n3)C(C)(C)C2)[nH]n1` [Compound I-341], for which the IC50 in assay [1] was 2.1 nM; in assay [2], 1.7 nM; in assay [3] it was above 1000 nM; in assay [4], above 1000 nM.

On to `Cc1cc(-c2cc(C(C)C)c3nc(C(=O)N4CCN(C(=O)c5nc[nH]n5)CC4(C)C)cn3n2)ccc1F` [Compound I-342], for which the half-inhibitory concentration (IC50) in assay [1] is 12.6 nM; in assay [2], 8.2 nM; in assay [3] it was above 1000 nM; in assay [4] it was above 1000 nM.

Regarding `Cc1nnc(C(=O)N2CCN(C(=O)c3cn4nc(-c5ccc(F)c(C)c5)cc(C(C)C)c4n3)C(C)(C)C2)o1` [Compound I-344], the IC50 in assay [1] was 15.4 nM; in assay [2] it was 15.8 nM; in assay [3], above 1000 nM; in assay [4] it was above 1000 nM.

As for `Cc1n[nH]c(C(=O)N2CCN(C(=O)c3cn4nc(-c5ccc(F)c(C)c5)cc(C(C)C)c4n3)C(C)(C)C2)n1` [Compound I-345], the IC50 in assay [1] is 5.6 nM; in assay [2] it was 6.2 nM; in assay [3], above 1000 nM; in assay [4], above 1000 nM.

With `Cc1ccc(-c2cc(C(C)(C)C)c3nc(C(=O)N4CCNC(=O)C4(C)C)cn3n2)cc1` [Compound I-347], the IC50 in assay [1] was 2.9 nM; in assay [2], 2.3 nM; in assay [3], above 1000 nM; in assay [4], above 1000 nM.

Turning to `CC(C)(C)c1cc(-c2ccccc2)nn2cc(C(=O)N3CCNC(=O)C3(C)C)nc12` [Compound I-348], the IC50 amounted to 4 nM in assay [1], 5.1 nM in assay [2], 360 nM in assay [3] and 673 nM in assay [4].

In the case of `CC(C)(C)c1cc(-c2ccc(C(F)F)cc2)nn2cc(C(=O)N3CCNC(=O)C3(C)C)nc12` [Compound I-349], the IC50 in assay [1] was 3 nM; in assay [2], 2.6 nM; in assay [3], above 1000 nM; in assay [4], above 1000 nM.

Take `Cc1cccc(-c2cc(C(C)(C)C)c3nc(C(=O)N4CCNC(=O)C4(C)C)cn3n2)c1` [Compound I-350]: the IC50 was 12.9 nM in assay [1], 13.7 nM in assay [2], above 1000 nM in assay [3] and above 1000 nM in assay [4].

With `CC(C)(C)c1cc(-c2ccc(F)c(F)c2)nn2cc(C(=O)N3CCNC(=O)C3(C)C)nc12` [Compound I-352], the half-inhibitory concentration (IC50) in assay [1] was 1.2 nM; in assay [2], 1.5 nM; in assay [3], above 1000 nM; in assay [4] it was above 1000 nM.

For `CC(C)c1cc(-c2ccc(Cl)cc2)nn2cc(C(=O)N3CCNC(=O)C3(C)C)nc12` [Compound I-353], the IC50 in assay [1] is 2.4 nM; in assay [2] it was 3 nM; in assay [3], above 1000 nM; in assay [4], above 1000 nM.

For `CC(C)c1cc(-c2ccc(Cl)c(F)c2)nn2cc(C(=O)N3CCNC(=O)C3(C)C)nc12` [Compound I-354], the 50% inhibitory concentration (IC50) in assay [1] is 1.2 nM; in assay [2] it was 1.3 nM; in assay [3], above 1000 nM; in assay [4], above 1000 nM.

Consider `Cc1cc(C(=O)N2CCN(C(=O)c3cn4nc(-c5ccc(F)cc5)cc(C(C)(F)F)c4n3)C(C)(C)C2)[nH]n1` [Compound I-355], for which the IC50 in assay [1] was 9.6 nM; in assay [2], 7 nM; in assay [3], above 1000 nM; in assay [4] it was above 1000 nM.

With `CC(C)(C)c1cc(-c2ccc(F)cc2)nn2cc(C(=O)N3CCN(C(=O)c4ccn[nH]c4=O)CC3(C)C)nc12` [Compound I-356], the concentration for half-maximal inhibition (IC50) in assay [1] is 28 nM; in assay [2], 15 nM; in assay [3], above 1000 nM; in assay [4], above 1000 nM.

For the compound `CC(C)(C)c1cc(-c2ccc(F)cc2)nn2cc(C(=O)N3CCN(C(=O)c4n[nH]c(=O)[nH]4)CC3(C)C)nc12` [Compound I-357], the half-inhibitory concentration (IC50) is 3.3 nM in assay [1], 4.4 nM in assay [2], 890 nM in assay [3] and above 1000 nM in assay [4].

With `CC(C)(C)c1cc(-c2ccc(C(F)(F)F)cc2)nn2cc(C(=O)N3CCN(c4c[nH]cn4)C(=O)C3(C)C)nc12` [Compound I-358], the IC50 in assay [1] is 11.3 nM; in assay [2], 4.4 nM; in assay [3] it was above 1000 nM; in assay [4] it was above 1000 nM.

Regarding `CC(C)(C)c1cc(-c2ccc(F)cc2)nn2cc(C(=O)N3CCN(c4cn[nH]n4)C(=O)C3(C)C)nc12` [Compound I-359], the half-inhibitory concentration (IC50) in assay [1] is 1 nM; in assay [2], 1.1 nM; in assay [3] it was above 1000 nM; in assay [4], above 1000 nM.

Consider `Cc1ccc(-c2cc(C(C)(C)C)c3nc(C(=O)N4CCN(c5c[nH]cn5)C(=O)C4(C)C)cn3n2)cc1F` [Compound I-360], for which the half-maximal inhibitory concentration (IC50) in assay [1] is 4.6 nM; in assay [2], 3 nM; in assay [3] it was above 1000 nM; in assay [4], above 1000 nM.

Take `CC(C)(C)c1cc(-c2ccc(Cl)cc2)nn2cc(C(=O)N3CCNC(=O)C3(C)C)nc12` [Compound I-361]: the IC50 in assay [1] is 2.7 nM; in assay [2] it was 2.2 nM; in assay [3], above 1000 nM; in assay [4], above 1000 nM.

Regarding `CC(C)(F)c1cc(-c2ccc(F)cc2)nn2cc(C(=O)N3CCNC(=O)C3(C)C)nc12` [Compound I-362], the half-inhibitory concentration (IC50) is 13 nM in assay [1], 31 nM in assay [2], above 1000 nM in assay [3] and above 1000 nM in assay [4].

Turning to `CC(C)c1cc(-c2ccc(F)c(Cl)c2)nn2cc(C(=O)N3CCNC(=O)C3(C)C)nc12` [Compound I-363], the concentration for half-maximal inhibition (IC50) is 5.4 nM in assay [1], 2.8 nM in assay [2], above 1000 nM in assay [3] and above 1000 nM in assay [4].

Regarding `Cc1ccc(-c2cc(C(C)(C)C)c3nc(C(=O)N4CCN(c5cn[nH]c5)C(=O)C4(C)C)cn3n2)cc1` [Compound I-364], the IC50 in assay [1] was 1.5 nM; in assay [2], 1.7 nM; in assay [3], above 1000 nM; in assay [4], above 1000 nM.

In the case of `Cc1ccc(-c2cc(C(C)(C)C)c3nc(C(=O)N4CCN(c5cn[nH]c5)C(=O)C4(C)C)cn3n2)cc1F` [Compound I-365], the IC50 was 1.1 nM in assay [1], 1.5 nM in assay [2], above 1000 nM in assay [3] and above 1000 nM in assay [4].

Regarding `Cc1nc(N2CCN(C(=O)c3cn4nc(-c5ccc(F)cc5)cc(C(C)(C)C)c4n3)C(C)(C)C2=O)c[nH]1` [Compound I-367], the half-maximal inhibitory concentration (IC50) is 2.6 nM in assay [1], 4.2 nM in assay [2], above 1000 nM in assay [3] and above 1000 nM in assay [4].
